Key:
[1] = molecular target: T1, binding between UPF1 and UPF2 (Homo sapiens, UniProt Q92900); experiment: FLAG-UPF1 immunoprecipitation / western blotting for UPF1-UPF2 binding; assay type: cell-based; settings: 5 μM, 1 hour; FLAG-UPF1 overexpressed; immunoprecipitation with FLAG antibody; FIG. 6
T1 construct: expressed in transfected cells
T1 sequence (Q92900 1-1129): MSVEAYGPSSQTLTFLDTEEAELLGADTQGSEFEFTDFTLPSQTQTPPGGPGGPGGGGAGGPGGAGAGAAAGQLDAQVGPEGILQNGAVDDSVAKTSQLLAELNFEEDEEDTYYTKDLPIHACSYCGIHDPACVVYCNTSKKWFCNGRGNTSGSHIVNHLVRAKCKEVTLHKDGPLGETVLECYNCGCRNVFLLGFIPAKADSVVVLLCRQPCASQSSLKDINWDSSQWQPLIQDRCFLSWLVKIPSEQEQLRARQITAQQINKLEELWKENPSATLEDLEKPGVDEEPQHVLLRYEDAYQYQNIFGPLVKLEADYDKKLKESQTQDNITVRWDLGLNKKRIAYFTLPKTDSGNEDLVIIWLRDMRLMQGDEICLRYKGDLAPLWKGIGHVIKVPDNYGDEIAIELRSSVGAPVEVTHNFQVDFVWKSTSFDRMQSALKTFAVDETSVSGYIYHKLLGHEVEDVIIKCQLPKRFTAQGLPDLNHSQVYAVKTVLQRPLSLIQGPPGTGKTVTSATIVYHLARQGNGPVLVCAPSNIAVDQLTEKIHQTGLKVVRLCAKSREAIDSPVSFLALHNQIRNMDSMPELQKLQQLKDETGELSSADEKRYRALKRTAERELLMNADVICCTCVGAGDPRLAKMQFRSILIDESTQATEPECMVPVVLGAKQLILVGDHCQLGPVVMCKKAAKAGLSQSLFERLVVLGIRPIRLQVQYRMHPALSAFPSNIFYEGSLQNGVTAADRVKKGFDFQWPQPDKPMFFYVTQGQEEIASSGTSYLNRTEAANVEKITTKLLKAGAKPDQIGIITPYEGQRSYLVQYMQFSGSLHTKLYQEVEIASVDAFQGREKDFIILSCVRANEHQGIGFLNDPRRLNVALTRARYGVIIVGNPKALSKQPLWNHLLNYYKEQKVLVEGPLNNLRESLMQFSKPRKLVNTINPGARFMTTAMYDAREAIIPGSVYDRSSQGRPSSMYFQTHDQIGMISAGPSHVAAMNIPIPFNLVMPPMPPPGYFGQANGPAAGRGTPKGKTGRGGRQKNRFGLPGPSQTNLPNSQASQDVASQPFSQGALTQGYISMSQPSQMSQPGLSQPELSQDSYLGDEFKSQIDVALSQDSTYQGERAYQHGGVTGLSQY
Protocol: In the cell line, DNA expressing FLAG-UPF1 was transiently overexpressed.
After treating the cell line with each compound at 5μM for 1 hour, a cell extract was obtained. Immunoprecipitation was performed on the cell extract obtained using a FLAG antibody.
Proteins before and after immunoprecipitation were analyzed by western blotting.

[2] = system: NMD (HeLa cell line constitutively expressing the NMD-target mRNA); experiment: NMD inhibitory effect in HeLa reporter cell line: RLuc mRNA (real-time PCR) and protein (dual luciferase assay); assay type: cell-based; settings: 5 μM, 12 hours, FIG. 4; for amount of RLuc mRNA: real-time PCR
Text: In Example 1, a beta-globin normal gene or the gene including a premature termination codon (PTC) found in genetic diseases was inserted into the downstream of a chemiluminescence gene, Renilla luciferase (RLuc). Normal gene-inserted mRNA was not targeted by NMD, whereas when a gene having PTC was inserted, the mRNA became a NMD target, and as a result, mRNA was quickly broken down and the expression level of RLuc was reduced.
Accordingly, a HeLa cell line constitutively expressing the NMD-target mRNA was prepared, and simultaneously, the cell line was designed to constitutively express a firefly luciferase (FLuc) gene, which was not a target of NMD, and a total of three cell lines NMD20, NMD4, and NMD5 with the same composition were obtained. In order to confirm whether the HeLa cell line prepared above was suitable for measuring NMD efficiency, the following two experiments were performed.
The NMD inhibitory effect of Compounds 1 to 3 was confirmed using the HeLa cell line prepared in Example 1. After treating the cells with Compounds 1 to 3 at 5 μM for 12 hours, respectively, total RNA and protein were purified from the cells, respectively. Then, the amounts of RNA and protein were quantified respectively through real-time PCR and dual luciferase assay methods. The results were illustrated in FIG. 4.

[3] = system: NMD steps (Upf1, Upf2, Upf3X tethered to reporter β-6bs mRNA); experiment: Tethering assay: MS2-Upf1, MS2-Upf2, MS2-Upf3 tethered to 3' UTR of reporter mRNA in HeLa cell line, real-time PCR; assay type: cell-based; settings: 5 μM, 6 hours or 12 hours, FIGS. 8 and 9
Protocol: An NMD-based search system capable of artificially reducing the amount of reporter mRNA was constructed, after artificially tethering proteins Upf1, Upf2, and Upf3X acting in each step of NMD to 3′ UTR of reporter mRNA (FIG. 7). Using this method, it was attempted to verify which step of NMD the three types of compounds acted on.
After treating the cell line with each compound at 5 μM for 6 hours or 12 hours, a cell extract was obtained. Thereafter, the relative amount of reporter mRNA was measured through real-time PCR.

[4] = system: dystrophin protein in cells derived from patients with DMD; experiment: Dystrophin protein by Western blotting in DMD patient-derived cell line; assay type: cell-based, human; settings: 5 μM, 12 hours, FIG. 11
UPF1 = experiment: Western blotting of UPF1 phosphorylation in treated cells; assay type: cell-based; settings: 5 μM, 12 hours, FIG. 5
Protocol: Phosphorylation of UPF1 was known to be one of the most important factors in NMD. In Example 3.1, the effect of the three types of compounds of the present invention on phosphorylation of UPF1 was examined. The cells were treated with each compound at 5 μM for 12 hours, and then total proteins were purified. Then, western blotting was performed using each antibody capable of recognizing Upf1 or Upf1 phosphorylated at a specific site.

Structure (SMILES)	effect on UPF1-UPF2 binding [1]	protein translation of RLuc ([2]; dual luciferase assay)	step of NMD targeted (relative amount of reporter mRNA) [3]	amount of dystrophin protein [4]	effect on phosphorylation of UPF1 (UPF1)	amount of RLuc mRNA [2]
COc1ncc(-c2ccc3nccc(-c4ccnnc4)c3c2)cc1NS(=O)(=O)c1ccc(F)cc1F [Compound 1, 2,4-Difluoro-N-{2-(methyloxy)-5-[4-(4-pyridazinyl)-6-quinolinyl]-3-pyridinyl}benzenesulfonamide]	significantly inhibited the UPF1-UPF2 binding	increased protein translation of RLuc	targeted a UPF1-UPF2 step	increased	did not significantly affect phosphorylation of UPF1	–
Cn1c(=O)n(-c2ccc(C(C)(C)C#N)cc2)c2c3cc(-c4cnc5ccccc5c4)ccc3ncc21 [Compound 2, 2-methyl-2-{4-[3-methyl-2-oxo-8-(quinolin-3-yl)-2,3-dihydro-1H-imidazo[4,5-c]quinolin-1-yl]phenyl}propanenitrile]	did not significantly affect the UPF1-UPF2 binding	–	did not target the UPF1-UPF2 and UPF2-UPF3 steps	–	significantly inhibited phosphorylation of UPF1	significantly increased the amount of mRNA
COc1cc2ncnc(-n3nc(-c4ccccn4)nc3N)c2cc1OC [Compound 3, 1-(6,7-Dimethoxy-4-quinazolinyl)-3-(2-pyridinyl)-1H-1,2,4-Triazol-5-amine]	did not significantly affect the UPF1-UPF2 binding	–	did not target the UPF1-UPF2 and UPF2-UPF3 steps	–	did not significantly affect phosphorylation of UPF1	significantly increased the amount of mRNA

Reference: patent publication US20240139183A1, “COMPOUND FOR SUPPRESSING NONSENSE-MEDIATED MRNA DECAY” (RiboTech Co., Ltd., priority 2021, published 2024)
